This passage reports IC50 results from patent US9255072B2, “Pyrazole compounds and thiazole compounds as protein kinases inhibitors” (National Health Rsearch Institutes, priority 2011, dated 2016).

What all share (type): biochemical
One assay deals with T1, wt-FLT3 (Homo sapiens, UniProt P36888).
T1 construct: FLT3 kinase catalytic domain (residues Y567˜S993); made in house; host or cells: Sf9 insect cells (baculovirus, pBac-PAK8-GST-FLT3-KD plasmid)
T1 sequence (P36888 567-993): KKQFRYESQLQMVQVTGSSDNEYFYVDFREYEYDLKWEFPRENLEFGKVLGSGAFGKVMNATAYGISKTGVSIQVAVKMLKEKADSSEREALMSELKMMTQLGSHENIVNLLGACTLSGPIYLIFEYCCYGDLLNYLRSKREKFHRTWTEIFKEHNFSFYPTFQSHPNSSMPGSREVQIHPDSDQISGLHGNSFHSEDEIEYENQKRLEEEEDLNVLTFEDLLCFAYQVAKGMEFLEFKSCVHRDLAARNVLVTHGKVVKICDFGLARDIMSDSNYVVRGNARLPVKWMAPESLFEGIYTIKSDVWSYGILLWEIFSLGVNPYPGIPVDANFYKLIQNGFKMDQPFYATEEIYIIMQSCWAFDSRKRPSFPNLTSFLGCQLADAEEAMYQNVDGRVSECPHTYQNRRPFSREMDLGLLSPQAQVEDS
The assay is described as follows: FLT3 WT Kinase-Glo assay. The settings on record: FLT3 WT Kinase-Glo, 1 μM ATP; read-out: IC50. How it is done:
GST-FLT3-KD^WT containing the FLT3 kinase catalytic domain (residues Y567˜S993) were expressed in Sf9 insect cells transfected the baculovirus containing pBac-PAK8-GST-FLT3-KD plasmid. […] Following incubation, 50 μl Kinase-Glo Plus Reagent (Promega, Madison, Wis., USA) was added to each well and the mixture was incubated at 25° C. for 20 min. A 70-μL aliquot of each reaction mixture was transferred to a black microtiter plate and the luminescence was measured on Wallac Vector 1420 multilabel counter (PerkinElmer, Shelton, Conn., USA).
A general note: Kinase-Glo reads ATP consumption through a luciferase reaction.

A further assay deals with T2, VEGFR2 (Homo sapiens, UniProt P35968).
T2 construct: GST-VEGFR2 (residues V789-V1356); GST (N); made in house; host or cells: Sf9 insect cells
Kind of assay: VEGFR2 Kinase-Glo kinase assay. The note with it: 1 μM ATP. The protocol:
(§1) The recombinant GST-VEGFR1 (residues R781-I1338) or GST-VEGFR2 (residues V789-V1356) containing kinase domain were expressed in Sf9 insect cells. The kinase assay were carried out in 96-well plates with tested compound in a final volume of 50 μl reaction at 30° C. for 120 minutes with following components: 25 mM HEPES pH 7.4, 10 mM MgCl2, 4 mM MnCl2, 0.5 mM Na3VO4, 2 mM DTT, 0.02% Triton X100, 0.01% BSA, 1 μM ATP, 2 μM polyGlu4:Tyr peptide, 50˜100 ng recombinant VEGFR1 or VEGFR2. Following incubation, 50 μl Kinase-Glo Plus Reagent (Promega, Madison, Wis., USA) was added to each well and the mixture was incubated at 25° C. for 20 min. A 70-μL aliquot of each reaction mixture was transferred to a black microtiter plate and the luminescence was measured on Wallac Vector 1420 multilabel counter (PerkinElmer, Shelton, Conn., USA).

A further assay deals with T3, VEGFR1 (Homo sapiens, UniProt P17948).
T3 construct: GST-VEGFR1 (residues R781-I1338); GST (N); made in house; host or cells: Sf9 insect cells
T3 sequence (P17948 781-1338): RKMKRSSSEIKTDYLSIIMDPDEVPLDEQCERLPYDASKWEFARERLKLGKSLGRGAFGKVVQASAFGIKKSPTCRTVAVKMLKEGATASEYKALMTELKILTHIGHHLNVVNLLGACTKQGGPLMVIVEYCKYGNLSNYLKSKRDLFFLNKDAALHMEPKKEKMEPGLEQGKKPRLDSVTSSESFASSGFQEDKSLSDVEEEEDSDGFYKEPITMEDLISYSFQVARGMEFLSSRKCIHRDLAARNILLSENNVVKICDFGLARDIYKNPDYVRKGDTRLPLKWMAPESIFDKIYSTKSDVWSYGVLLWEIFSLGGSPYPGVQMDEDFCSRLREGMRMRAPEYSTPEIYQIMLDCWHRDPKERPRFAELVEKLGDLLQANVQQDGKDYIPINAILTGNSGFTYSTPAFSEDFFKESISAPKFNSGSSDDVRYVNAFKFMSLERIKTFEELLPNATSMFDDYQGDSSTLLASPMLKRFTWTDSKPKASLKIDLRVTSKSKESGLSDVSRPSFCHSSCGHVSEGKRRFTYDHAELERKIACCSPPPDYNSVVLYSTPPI
The assay is described as follows: VEGFR1 Kinase-Glo kinase assay. The note with it: 1 μM ATP. The protocol:
as §1

[1] abbreviates: VEGFR2 assay, bound in μM, read-out: IC50.
Setting [2] is: VEGFR2 assay, ranges in nM, read-out: IC50.
[3] abbreviates: VEGFR1 assay, bound in nM, read-out: IC50.
Setting [4] is: VEGFR1 assay, bound in μM, read-out: IC50.

Like-named read-outs stand apart in the source and are kept apart here.

T2 sequence (P35968 789-1356): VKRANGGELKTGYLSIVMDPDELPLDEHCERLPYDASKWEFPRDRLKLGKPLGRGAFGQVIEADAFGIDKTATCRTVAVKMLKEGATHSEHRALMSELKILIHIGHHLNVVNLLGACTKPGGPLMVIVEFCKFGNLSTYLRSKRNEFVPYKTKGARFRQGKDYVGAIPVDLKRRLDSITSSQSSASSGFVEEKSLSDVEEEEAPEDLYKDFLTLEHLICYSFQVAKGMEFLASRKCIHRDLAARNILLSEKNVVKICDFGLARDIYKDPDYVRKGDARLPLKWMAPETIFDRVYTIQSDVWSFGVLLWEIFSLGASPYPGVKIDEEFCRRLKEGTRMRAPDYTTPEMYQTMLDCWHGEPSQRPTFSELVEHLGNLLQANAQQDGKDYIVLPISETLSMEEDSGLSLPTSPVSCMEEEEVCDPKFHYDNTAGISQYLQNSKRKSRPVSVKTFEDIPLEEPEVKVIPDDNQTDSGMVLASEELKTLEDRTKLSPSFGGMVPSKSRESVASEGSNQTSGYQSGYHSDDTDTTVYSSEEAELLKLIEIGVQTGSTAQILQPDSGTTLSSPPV

One may read the IC50 as the midpoint of a concentration-inhibition curve. As to `Cc1nc(Nc2cc(-c3ccc(CNC(=O)OCc4cc(C)on4)cc3)n[nH]2)cc(N2CCN(C)CC2)n1` [Compound 99, (5-Methyl-3-isoxazolyl)methyl-N-[4-(5-[2-methyl-6-(4-methylpiperazino)-4-pyrimidinyl]amino-1H-3-pyrazolyl)benzyl]carbamate], the IC50 at wt-FLT3 was in the range of 1 to 20 nM.

`Cc1cc(NC(=O)NCc2ccc(-c3cc(NC(=O)c4ccc(OCCN5CCCC5)cc4)[nH]n3)cc2)no1` [Compound 57, N1-(3-4-[([(5-methyl-3-isoxazolyl)amino]carbonylamino)methyl]phenyl-1H-5-pyrazolyl)-4-(2-tetrahydro-1H-1-pyrrolylethoxy)benzamide]: the IC50 is 1 to 20 nM on wt-FLT3, < 1 µM at VEGFR2 (setting [1]) and 0.001 to 0.055 µM at VEGFR2 (setting [2]).

Turning to `CN1CCN(c2ccc(C(=O)Nc3cc(-c4ccc(CNC(=O)c5ccccc5)cc4)n[nH]3)cc2)CC1` [Compound 11, N1-(3-4-[(benzoylamino)methyl]phenyl-1H-5-pyrazolyl)-4-(4-methylpiperazino)benzamide], the IC50 on wt-FLT3 lay within 1 to 20 nM.

In the case of `CN1CCN(c2ccc(C(=O)Nc3cc(-c4ccc(N)cc4)n[nH]3)cc2)CC1` [Compound 2, N1-[3-(4-aminophenyl)-1H-5-pyrazolyl]-4-(4-methylpiperazino)benzamide], the IC50 at wt-FLT3 is 1 to 20 nM.

Regarding `Cc1cc(-c2cc(NC(=O)c3ccc(N4CCN(C)CC4)cc3)[nH]n2)ccc1N` [Compound 6, N1-[3-(4-amino-3-methylphenyl)-1H-5-pyrazolyl]-4-(4-methylpiperazino)benzamide], the IC50 was 1 to 20 nM on wt-FLT3, < 1 µM on VEGFR2 (setting [1]) and 0.055 to 0.4 µM on VEGFR2 (setting [2]).

`O=C(NCc1ccc(-c2cc(NC(=O)c3ccc(OCCN4CCCC4)cc3)[nH]n2)cc1)OCc1ccccc1` [Compound 73, Benzyl-N-[4-(5-[4-(2-tetrahydro-1H-1-pyrrolylethoxy)benzoyl]amino-1H-3-pyrazolyl)benzyl]carbamate]: the IC50 was 1 to 20 nM on wt-FLT3; < 100 nM at VEGFR1 (setting [3]); < 1000 nM on VEGFR1 (setting [4]); < 1 µM at VEGFR2 (setting [1]); 0.055 to 0.4 µM on VEGFR2 (setting [2]).

On to `Cc1nc(Nc2cc(-c3ccc(CNC(=O)OCc4ccccc4)cc3)n[nH]2)cc(N2CCN(C)CC2)n1` [Compound 96, Benzyl-N-[4-(5-[2-methyl-6-(4-methylpiperazino)-4-pyrimidinyl]amino-1H-3-pyrazolyl)benzyl]carbamate], for which the IC50 at wt-FLT3 was 1 to 20 nM; on VEGFR1 (setting [4]), < 1000 nM; on VEGFR2 (setting [1]) it was < 1 µM; at VEGFR2 (setting [2]) it was 0.055 to 0.4 µM.

Turning to `CN1CCN(c2ccc(C(=O)Nc3cc(-c4ccc(CNC(=O)Nc5ccccc5)cc4)n[nH]3)cc2)CC1` [Compound 51, N1-[3-(4-[(anilinocarbonyl)amino]methylphenyl)-1H-5-pyrazolyl]-4-(4-methylpiperazino)benzamide], the IC50 on wt-FLT3 was 1 to 20 nM; on VEGFR2 (setting [1]), < 1 µM; at VEGFR2 (setting [2]) it was 0.001 to 0.055 µM.

`Cc1nc(Nc2cc(-c3ccc(CNC(=O)OCc4ccccc4)cc3)n[nH]2)cc(N2CCN(CCO)CC2)n1` [Compound 97, Benzyl-N-4-[5-(6-[4-(2-hydroxyethyl)piperazino]-2-methyl-4-pyrimidinylamino)-1H-3-pyrazolyl]benzylcarbamate]: the figures for the IC50 at wt-FLT3, at VEGFR2 (setting [1]) and on VEGFR2 (setting [2]) were 1 to 20 nM, < 1 µM and 0.055 to 0.4 µM, respectively.

Take `O=C(Nc1cc(-c2cccc(NS(=O)(=O)c3ccccc3)c2)n[nH]1)c1ccc(OCCN2CCCC2)cc1` [Compound 24, N1-(3-3-[(phenylsulfonyl)amino]phenyl-1H-5-pyrazolyl)-4-(2-tetrahydro-1H-1-pyrrolylethoxy)benzamide]: the IC50 on wt-FLT3 was 1 to 20 nM; at VEGFR1 (setting [4]), < 1000 nM; on VEGFR2 (setting [1]) it was < 1 µM; on VEGFR2 (setting [2]) it was 0.055 to 0.4 µM.

With `CC(C)(C)c1cc(NC(=O)NCc2ccc(-c3cc(NC(=O)c4ccc(OCCN5CCOCC5)cc4)[nH]n3)cc2)no1` [Compound 60, N1-[3-(4-[([5-(tert-butyl)-3-isoxazolyl]aminocarbonyl)amino]methylphenyl)-1H-5-pyrazolyl]-4-(2-morpholinoethoxy)benzamide], the IC50 on wt-FLT3 is 1 to 20 nM; on VEGFR2 (setting [1]), < 1 µM; at VEGFR2 (setting [2]) it was 0.001 to 0.055 µM.

Regarding `CN1CCN(c2ccc(C(=O)Nc3cc(-c4ccc(NC(=O)Nc5cc(C(C)(C)C)on5)cc4)n[nH]3)cc2)CC1` [Compound 37, N1-(3-4-[([5-(tert-butyl)-3-isoxazolyl]aminocarbonyl)amino]phenyl-1H-5-pyrazolyl)-4-(4-methylpiperazino)benzamide], the IC50 at wt-FLT3 is 1 to 20 nM; on VEGFR1 (setting [3]) it was < 100 nM; on VEGFR1 (setting [4]), < 1000 nM; on VEGFR2 (setting [1]), < 1 µM; at VEGFR2 (setting [2]), 0.001 to 0.055 µM.

`Cc1cc(COC(=O)NCc2ccc(-c3cc(NC(=O)c4ccc(N5CCN(C)CC5)cc4)[nH]n3)cc2)no1` [Compound 75, (5-Methyl-3-isoxazolyl)methyl-N-[4-(5-[4-(4-methylpiperazino)benzoyl]amino-1H-3-pyrazolyl)benzyl]carbamate]: the IC50 at wt-FLT3 is 1 to 20 nM; on VEGFR1 (setting [4]), < 1000 nM; on VEGFR2 (setting [1]) it was < 1 µM; on VEGFR2 (setting [2]) it was 0.055 to 0.4 µM.

As to `CN1CCN(c2ccc(C(=O)Nc3cc(-c4ccc(CNC(=O)Oc5ccccc5)cc4)n[nH]3)cc2)CC1` [Compound 82, Phenyl-N-[4-(5-[4-(4-methylpiperazino)benzoyl]amino-1H-3-pyrazolyl)benzyl]carbamate], the IC50 on wt-FLT3 is 1 to 20 nM; against VEGFR1 (IC50, VEGFR1 assay, bound in nM), < 100 nM; at VEGFR1 (IC50, VEGFR1 assay, bound in μM), < 1000 nM; against VEGFR2 (IC50, VEGFR2 assay, bound in μM) it was < 1 µM; against VEGFR2 (IC50, VEGFR2 assay, ranges in nM) it was 0.055 to 0.4 µM.

Turning to `CN1CCN(Cc2ccc(C(=O)Nc3cc(-c4ccc(CNC(=O)OCc5ccccc5)cc4)n[nH]3)cc2)CC1` [Compound 77, Benzyl-N-4-[5-(4-[(4-methylpiperazino)methyl]benzoylamino)-1H-3-pyrazolyl]benzylcarbamate], at wt-FLT3, the IC50 was 1 to 20 nM.

On to `O=C(NCc1ccc(-c2cc(NC(=O)c3ccc(OCCN4CCOCC4)cc3)[nH]n2)cc1)OCc1cccnc1` [Compound 80, 3-Pyridylmethyl-N-[4-(5-[4-(2-morpholinoethoxy)benzoyl]amino-1H-3-pyrazolyl)benzyl]carbamate], for which the IC50 on wt-FLT3 is 1 to 20 nM.

Regarding `Cc1nc(Nc2cc(-c3ccc(CNC(=O)OCc4cccnc4)cc3)n[nH]2)cc(N2CCN(C)CC2)n1` [Compound 101, 3-Pyridylmethyl-N-[4-(5-[2-methyl-6-(4-methylpiperazino)-4-pyrimidinyl]amino-1H-3-pyrazolyl)benzyl]carbamate], the IC50 on wt-FLT3 fell in the range of 1 to 20 nM.
